# Reference: patent publication US5457091A, “N1-substituted 1H-1,2,3-triazolo[4,5,-D]pyrimidines, a process for their preparation and their use as antiviral agents” (priority 1992, dated 1995)
# Like-named read-outs stand apart in the source and are kept apart here.
# Assays:
# HSV-1 VR539 = assay: CPE inhibition, HSV-1 VR539 in Vero cells; format: cell-based, type 1 herpes simplex virus; conditions: Human alphaherpesvirus 1, MIC = concentration protecting 50% of cells from CPE
# Method: (§1) The antiviral activity of the test substances on various human pathogenic DNA and RNA viruses was investigated in cell culture test systems.
# (§2) The test substances are diluted in ethanol to a final concentration of 1 mg/ml before the test, and Dulbecco's minimal essential medium (MEM) is used for further dilution steps. For the test, serial 3-fold dilutions of the test substances are made up in 96-well microtiter plates. Monkey kidney cells (Veto) in medium199 (5% FCS) or human embryonic diploid pulmonary fibroblast cells MRC-5 (Whittaker) are added in a concentration of 2×10^4 cells/well and incubated at 37° C. (5% CO2) for 3 h.
# (§3) The test mixtures contain the test substance in concentrations from 400 μg/ml to 0.18 μg/ml in MEM supplemented with 4% FCS (HeLa) or 2% FCS (Veto), 100 U/ml penicillin G and 100 μg/ml streptomycin.
# (§4) The cells are then infected with type 1 herpes simplex virus (corneas), type I herpes simplex virus VR733, type 1 herpes simplex virus VR539 (hominis), type 2 herpes simplex virus VR734 (MS), human cytomegalovirus VR977 or varicella zoster virus VR586 in concentrations at which the cell lawn is completely destroyed within 3 days (CMV: 7 days, VZV: 10 days) (for example HSV-1 corneae: 0.035 PFU/Vero cell, HSV-2: 0.066 PFU/Vero cell).
# (§5) The cultures are incubated at 37° C. in the presence of 5% CO2. All the investigations are carried out as duplicate determinations; controls are determined only once per plate.
# (§6) The untreated infection controls show a complete cytopathogenic effect (CPE) after incubation for a further 48 h (HCMV after 6 days, VZV after 9 days). After microscopic inspection of the cell cultures (HSV, HCMV, VZV), they are then stained (only HSV) with neutral red in accordance with the vital staining method of Finter (1966). The antiviral activity of a test substance is defined as the minimum inhibitory concentration (MIC) which is required to protect 50% of the cells from the cytopathogenic effect of the virus.
# [1] = Cytotoxicity by microscopic inspection, Vero cells; format: cell-based; conditions: monkey
# Method: as §2, §3, §5
# (§7) After incubation for 24 h, the cytotoxicity of the test substances is determined by microscopic inspection of the cell cultures. The maximum tolerated dose (MTD) is designated as the highest concentration of product which, under the said test conditions, is insufficient to cause microscopically detectable cell damage.
# [2] = Cytotoxicity by microscopic inspection, MRC-5 cells; format: cell-based; conditions: human, read-out: MTD (maximum tolerated dose)
# Method: as §2, §3, §5, §7
# HSV-1 VR733 = assay: CPE inhibition, HSV-1 VR733 in Vero cells; format: cell-based, type 1 herpes simplex virus; conditions: Human alphaherpesvirus 1, MIC = concentration protecting 50% of cells from CPE
# Method: as §1, §2, §3, §4, §5, §6
# HSV-1 corneae = assay: CPE inhibition, HSV-1 corneae in Vero cells; format: cell-based, type 1 herpes simplex virus; conditions: Human alphaherpesvirus 1, MIC = concentration protecting 50% of cells from CPE
# Method: as §1, §2, §3, §4, §5, §6
# HCMV VR977 = assay: CPE inhibition, HCMV VR977 in MRC-5 cells; format: cell-based, human cytomegalovirus; conditions: Human betaherpesvirus 5, MRC5, MIC = concentration protecting 50% of cells from CPE
# Method: as §1, §2, §3, §4, §5, §6
# HSV-2 VR734 = assay: CPE inhibition, HSV-2 VR734 in Vero cells; format: cell-based, type 2 herpes simplex virus; conditions: Human alphaherpesvirus 2, MIC = concentration protecting 50% of cells from CPE
# Method: as §1, §2, §3, §4, §5, §6
# HSV-1 labialis = assay: CPE inhibition, HSV-1 labialis in Vero cells; format: cell-based, type 1 herpes simplex virus; conditions: Human alphaherpesvirus 1, MIC = concentration protecting 50% of cells from CPE
# Method: as §1, §2, §3, §4, §5, §6
# herpesviruses = assay: Antiviral activity against herpesviruses (general statement); conditions: in words
# VZV VR586 = assay: CPE inhibition, VZV VR586 in MRC-5 cells; format: cell-based, varicella zoster virus; conditions: Human alphaherpesvirus 3, MRC5, read-out: MIC VZV VR586
# Method: as §1, §2, §3, §5
# as §6, with “After” for “The untreated infection controls show a complete cytopathogenic effect (CPE) after incubation for a further 48 h (HCMV after 6 days, VZV after 9 days). After”
# HSV-1 = assay: Therapeutic efficacy in NMRI mice infected intraperitoneally with HSV-1; format: in vivo; conditions: for Surviving/group size: observed 2 weeks; for ED50: Human alphaherpesvirus 1, from Reed & Muench, read-out: IC50 (the source's name)
# [3] = Vero cells, 24 h, read-out: MTD (maximum tolerated dose)
SMILES,EC50 (HSV-1 VR539),MNTC at 24 h [2],EC50 (HSV-1 VR733),EC50 (HSV-1 corneae),EC50 (HCMV VR977),EC50 (HSV-2 VR734),EC50 (HSV-1 labialis),activity against herpesviruses (herpesviruses),"MNTC at 24 h [1, 3]",EC50 (VZV VR586),Average survival time (HSV-1; 9 × 3 μmol/kg ip),Surviving/group size (HSV-1; 9 × 3 μmol/kg ip),Average survival time (HSV-1; 9 × 3 μmol/kg po),Surviving/group size (HSV-1; 9 × 3 μmol/kg po),Surviving/group size (HSV-1; 9 × 10 μmol/kg ip),Average survival time (HSV-1; 9 × 10 μmol/kg po),Surviving/group size (HSV-1; 9 × 10 μmol/kg po),Surviving/group size (HSV-1; 9 × 30 μmol/kg ip),ED50 (HSV-1; ip),ED50 (HSV-1; po),further results
"Nc1nc2c(ncn2COCCO)c(=O)[nH]1 [Aciclovir, reference compound]",0.98 µg/mL,≥ 400 µg/mL,0.56 µg/mL,≤ 0.98 µg/mL,1.16 µg/mL,≤ 0.4 µg/mL,0.56 µg/mL,,,,,,,,,,,,,,MNTC at 24 h ([1]; vero cells): ≥ 400 µg/mL
"CC(C)OCC(COC(C)C)OCn1nnc2nc(N)ncc21 [Example 7, 5-amino-1H-1-[(1,3-bis-isopropoxy-2-propoxy)methyl]-1,2,3-triazolo[4,5-d]pyrimidine]",,,,,,,,particularly high activity against herpesviruses,,,,,,,,,,,,,
"CC(=O)Nc1ncc2c(nnn2COC(CO)CO)n1 [Example 8, 5-acetamido-1H-1-[(1,3-dihydroxy-2-propoxy)methyl]-1,2,3-triazolo[4,5-d]pyrimidine]",24.7 µg/mL,≥ 311 µg/mL,6.58 µg/mL,11.5 µg/mL,7.13 µg/mL,37 µg/mL,7.68 µg/mL,,≥ 333 µg/mL,0.18 µg/mL,,,,,,,,,,,
"Nc1ncc2c(nnn2COC(CO)CO)n1 [Example 9, 5-amino-1H-1-[(1,3-dihydroxy-2-propoxy)methyl]-1,2,3-triazolo[4,5-d]pyrimidine]",4.94 µg/mL,≥ 356 µg/mL,1.28 µg/mL,1.65 µg/mL,< 0.27 µg/mL,2.93 µg/mL,1.1 µg/mL,particularly high activity against herpesviruses,≥ 333 µg/mL,< 0.18 µg/mL,6.3 ± 0.6 days,2/5,8.8 ± 1.6 days,0/5,5/5,6.2 ± 0.5 days,0/5,5/5,3.7 µmol/kg,> 30 µmol/kg,Average survival time (HSV-1; 9 × 30 μmol/kg po): 8.0 ± 1.7 days; Surviving/group size (HSV-1; 9 × 30 μmol/kg po): 0/5
"CC(=O)OCC(COC(C)=O)OCn1nnc2nc(N)ncc21 [Example 10, 5-amino-1H-1-[(1,3-diacetoxy-2-propoxy)methyl]-1,2,3-triazolo [4,5-d]pyrimidine]",24.7 µg/mL,≥ 74.1 µg/mL,11.5 µg/mL,14.8 µg/mL,< 0.3 µg/mL,24.7 µg/mL,9.88 µg/mL,particularly high activity against herpesviruses,≥ 311 µg/mL,< 0.18 µg/mL,,,,,,,,,< 9 µmol/kg,19.7 µmol/kg,Average survival time (HSV-1; 9 × 9 μmol/kg ip): 11.0 ± 1.4 days; Surviving/group size (HSV-1; 9 × 9 μmol/kg ip): 3/5; Average survival time (HSV-1; 9 × 9 μmol/kg po): 8.8 ± 1.8 days; Surviving/group size (HSV-1; 9 × 9 μmol/kg po): 0/5; Surviving/group size (HSV-1; 9 × 31 μmol/kg ip): 5/5; Average survival time (HSV-1; 9 × 31 μmol/kg po): 12.0 days; Surviving/group size (HSV-1; 9 × 31 μmol/kg po): 4/5; Surviving/group size (HSV-1; 9 × 93 μmol/kg ip): 5/5; Surviving/group size (HSV-1; 9 × 93 μmol/kg po): 5/5
"Nc1nc(O)c2ncn(COC(CO)CO)c2n1 [Ganciclovir, reference compound]",1.65 µg/mL,≥ 400 µg/mL,0.95 µg/mL,0.85 µg/mL,0.06 µg/mL,1.93 µg/mL,≤ 0.18 µg/mL,,≥ 400 µg/mL,6.13 µg/mL,8.0 ± 0 days,3/5,11.3 ± 1.5 days,1/5,5/5,9.5 ± 0.7 days,3/5,5/5,< 3 µmol/kg,6.8 µmol/kg,Surviving/group size (HSV-1; 9 × 30 μmol/kg po): 5/5
